We go through 1 molecule from ChEMBL document CHEMBL4359842 (J Med Chem, 2019).

The source made the active and inactive calls. No cut-off for these calls is given here.

Series [1] concerns Mus musculus. Description: Improvement in spatial memory impairment in ip dosed APPswe/PS1dE9 double mutant-transgenic mouse model assessed as decrease in number of fibrillar plaque in hippocampus administered once daily for 12 weeks measured post-last dose by thioflavin S staining-based fluorescence microscopic analysis. Format: functional, organism-based.
A short description of series [2]: Primary phase half life in APPswe/PS1dE9 double mutant-transgenic mouse at 30 mg/kg, ip administered as single dose by LC-MS/MS analysis. Type of series: ADME, organism-based. As to conditions: in vivo, read-out: alphat1/2 (converted).
Series [3] has as its system Mus musculus. The series is described as follows: Improvement in spatial memory impairment in APPswe/PS1dE9 double mutant-transgenic mouse model assessed as increase in duration of time spent in target quadrant at 15 to 30 mg/kg, ip administered once daily for 12 weeks measured 24 hrs after training trial by morris water maze test. Format: functional, organism-based.

The test system of series [4] is Mus musculus. The series is described as follows: Improvement in spatial memory impairment in APPswe/PS1dE9 double mutant-transgenic mouse model assessed as decrease in escape latency at 15 to 30 mg/kg, ip administered once daily for 12 weeks measured 24 hrs after training trial by morris water maze test. Format: functional, organism-based.
The nature of series [5]: Plasma concentration in APPswe/PS1dE9 double mutant-transgenic mouse at 30 mg/kg, ip administered as single dose measured after 24 hrs by LC-MS/MS analysis. Type of series: ADME, organism-based.
Series [6] in a line: Plasma concentration in APPswe/PS1dE9 double mutant-transgenic mouse at 30 mg/kg, ip administered as single dose measured after 8 hrs by LC-MS/MS analysis. Type of series: ADME, organism-based.
The nature of series [7]: Drug level in APPswe/PS1dE9 double mutant-transgenic mouse brain at 30 mg/kg, ip administered as single dose measured after 0.5 hrs by LC-MS/MS analysis. Type of series: ADME, organism-based. The conditions noted are these: read-out: Drug uptake.
The test system of series [8] is Mus musculus. The series is described as follows: Improvement in spatial memory impairment in ip dosed APPswe/PS1dE9 double mutant-transgenic mouse model assessed as decrease in number of diffused plaque in hippocampus administered once daily for 12 weeks measured post-last dose by thioflavin S staining-based fluorescence microscopic analysis. Type of series: functional, organism-based.

Series [9] can be described thus: Cmax in APPswe/PS1dE9 double mutant-transgenic mouse at 3 mg/kg, iv administered as single dose by LC-MS/MS analysis. Type of series: ADME, organism-based. Also noted: dose 3 mg/kg, route intravenous. As to conditions: in vivo.
The target in series [10] is Mitogen-activated protein kinase 9 (Homo sapiens, UniProt P45984). Description: Inhibition of human JNK2alpha2 using ATF2 as substrate measured after 40 mins in presence of [gamma33P]ATP by scintillation counting analysis.
Sequence of Mitogen-activated protein kinase 9 (P45984 whole entry, the tested form may be a part): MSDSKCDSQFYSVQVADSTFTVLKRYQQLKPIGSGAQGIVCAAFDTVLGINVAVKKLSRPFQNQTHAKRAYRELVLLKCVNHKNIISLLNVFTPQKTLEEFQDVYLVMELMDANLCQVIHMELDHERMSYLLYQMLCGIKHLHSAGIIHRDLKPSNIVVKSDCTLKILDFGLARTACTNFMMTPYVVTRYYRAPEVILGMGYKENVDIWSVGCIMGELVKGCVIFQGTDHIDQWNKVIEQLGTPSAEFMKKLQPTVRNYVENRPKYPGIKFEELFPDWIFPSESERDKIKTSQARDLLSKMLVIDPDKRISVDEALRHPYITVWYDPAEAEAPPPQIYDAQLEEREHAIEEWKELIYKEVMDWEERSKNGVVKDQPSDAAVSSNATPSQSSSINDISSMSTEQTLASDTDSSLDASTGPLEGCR
Series [11] relates to Mus musculus. Description: Improvement in spatial memory impairment in ip dosed APPswe/PS1dE9 double mutant-transgenic mouse model assessed as decrease in number of diffused plaque in cortex administered once daily for 12 weeks measured post-last dose by thioflavin S staining-based fluorescence microscopic analysis. Format: functional, organism-based.
The subject of series [12] is Mus musculus. The series is described as follows: In vivo inhibition of JNK in APPswe/PS1dE9 double mutant-transgenic mouse model assessed as reduction in APP phosphorylation at Thr668 residue in hippocampus at 30 mg/kg, ip administered once daily for 12 weeks measured post-last dose by Western blot analysis. Format: functional, organism-based. In general terms: Immunoblotting shows a protein as a band on a membrane.

Series [13] in a line: Ratio of drug level in APPswe/PS1dE9 double mutant-transgenic mouse brain to plasma at 30 mg/kg, ip administered as single dose measured after 8 hrs by LC-MS/MS analysis. As to conditions: read-out: BPR. Format: ADME, organism-based.
In series [14] the target is Mitogen-activated protein kinase 10 (Homo sapiens, UniProt P53779). Description: Inhibition of recombinant human full-length JNK3 using ATF2 as substrate measured after 40 mins in presence of [gamma33P]ATP by scintillation counting analysis.
Sequence of Mitogen-activated protein kinase 10 (P53779 whole entry): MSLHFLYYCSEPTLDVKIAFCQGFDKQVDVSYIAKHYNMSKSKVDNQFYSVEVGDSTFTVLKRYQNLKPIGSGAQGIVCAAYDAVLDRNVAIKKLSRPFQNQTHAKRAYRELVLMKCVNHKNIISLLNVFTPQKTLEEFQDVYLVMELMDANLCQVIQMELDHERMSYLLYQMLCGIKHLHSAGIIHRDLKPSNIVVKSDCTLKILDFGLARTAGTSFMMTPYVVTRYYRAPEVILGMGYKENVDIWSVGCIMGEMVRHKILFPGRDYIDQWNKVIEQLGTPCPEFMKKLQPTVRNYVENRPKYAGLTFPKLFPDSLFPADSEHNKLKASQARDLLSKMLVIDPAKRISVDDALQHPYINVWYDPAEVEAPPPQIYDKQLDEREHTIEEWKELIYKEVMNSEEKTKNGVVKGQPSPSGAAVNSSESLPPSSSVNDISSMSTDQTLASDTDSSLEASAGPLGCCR
The subject of series [15] is Mus musculus. The series is described as follows: Improvement in spatial memory impairment in ip dosed APPswe/PS1dE9 double mutant-transgenic mouse model assessed as decrease in area occupied by fibrillar plaque in hippocampus administered once daily for 12 weeks measured post-last dose by thioflavin S staining-based fluorescence microscopic analysis. Format: functional, organism-based.

Series [16] is described as follows: Plasma concentration in APPswe/PS1dE9 double mutant-transgenic mouse at 30 mg/kg, ip administered as single dose measured after 2 hrs by LC-MS/MS analysis. Type of series: ADME, organism-based.
Series [17] deals with Mus musculus. Description: Effect on acquisition latency time in APPswe/PS1dE9 double mutant-transgenic mouse model at 15 to 30 mg/kg, ip administered once daily for 12 weeks measured post-last dose by step-through passive avoidance test. Format: ADME, organism-based. The conditions noted are these: in vivo, 2016 h.
Series [18] relates to Mus musculus. The series is described as follows: In vivo inhibition of JNK in APPswe/PS1dE9 double mutant-transgenic mouse model assessed as reduction in Tau phosphorylation at Thr205 residue in hippocampus at 30 mg/kg, ip administered once daily for 12 weeks measured post-last dose by Western blot analysis. Format: functional, organism-based.
The test system of series [19] is Mus musculus. The series is described as follows: In vivo inhibition of JNK in APPswe/PS1dE9 double mutant-transgenic mouse model assessed as reduction in Tau phosphorylation at Thr205 residue in cortex at 30 mg/kg, ip administered once daily for 12 weeks measured post-last dose by Western blot analysis. Type of series: functional, organism-based.
In series [20] the test system is Mus musculus. The series is described as follows: Improvement in spatial memory impairment in ip dosed APPswe/PS1dE9 double mutant-transgenic mouse model assessed as decrease in number of fibrillar plaque in cortex administered once daily for 12 weeks measured post-last dose by thioflavin S staining-based fluorescence microscopic analysis. Format: functional, organism-based.

Series [21] relates to Mus musculus. The series is described as follows: Improvement in spatial memory impairment in ip dosed APPswe/PS1dE9 double mutant-transgenic mouse model assessed as decrease in area occupied by diffused plaque in hippocampus administered once daily for 12 weeks measured post-last dose by thioflavin S staining-based fluorescence microscopic analysis. Type of series: functional, organism-based.

The subject of series [22] is Mus musculus. The series is described as follows: Improvement in spatial memory impairment in ip dosed APPswe/PS1dE9 double mutant-transgenic mouse model assessed as decrease in area occupied by fibrillar plaque in cortex administered once daily for 12 weeks measured post-last dose by thioflavin S staining-based fluorescence microscopic analysis. Type of series: functional, organism-based.

With `O=C1N/C(=N/c2ccccc2Cl)S/C1=C1\C(=O)Nc2ccc(F)cc21`, the Activity entry in series [1] is “Dose-dependent effect”; in [8] it was “Dose-dependent effect”; in [11], “Dose-dependent effect”; in series [15] it was “Dose-dependent effect”; in series [17], “Non-Toxic”; in [20], “Dose-dependent effect”. Also, the Activity result in series [21] and in [22] was “Dose-dependent effect” in each case. For the same molecule, in series [2], the half-life is 20.4 min. Besides, the result in series [3] and in series [4] was Active. Further, in series [5], the concentration at 24 h amounted to 41 ng/mL. In [6], this molecule showed a concentration at 8 h of 78.1 ng/mL. In [7], the concentration at 0.5 h amounted to 51.4 ng/g. This molecule also came in with a Cmax in series [9] of 4550 ng/mL. The IC50 was above 100000 nM in series [10] and 40 nM in series [14]. Moreover, the inhibition result in series [12], in [18] and in [19] was “Active” in each case. Also, the Kp at 8 h in series [13] worked out at 0.4. Moreover, the concentration at 2 h in series [16] was determined as 1200 ng/mL.

Usually Cmax stands for the highest concentration seen after dosing. The term IC50 denotes the point on the concentration scale where inhibition reaches its midpoint.
